Measured values from the NIST ThermoML archive (doi:10.1021/je600519p).

Test: refractive index (Na D-line) (dimensionless); xn = mol fraction of the nth substance listed
Settings: 101 kPa, Liquid

CC(=O)c1ccccc1 [acetophenone] + CCOC(=O)OCC
refractive index
Settings	293.15 K	303.15 K	313.15 K	323.15 K
x2 = 0.0511	1.5269	1.5221	1.5172	1.5123
x2 = 0.1014	1.5201	1.5154	1.5107	1.506
x2 = 0.1501	1.5134	1.5089	1.5043	1.4998
x2 = 0.1996	1.5065	1.5022	1.4976	1.4932
x2 = 0.2465	1.5001	1.4958	1.4913	1.4869
x2 = 0.3041	1.4919	1.4877	1.4833	1.479
x2 = 0.3467	1.4858	1.4817	1.4774	1.4731
x2 = 0.4001	1.4781	1.474	1.4697	1.4656
x2 = 0.4507	1.4707	1.4666	1.4624	1.4583
x2 = 0.4888	1.4651	1.461	1.4568	1.4527
x2 = 0.5506	1.4558	1.4518	1.4475	1.4435
x2 = 0.6038	1.4477	1.4437	1.4395	1.4353
x2 = 0.6498	1.4406	1.4366	1.4323	1.4282
x2 = 0.7104	1.4312	1.4271	1.4228	1.4186
x2 = 0.7513	1.4247	1.4206	1.4164	1.4121
x2 = 0.8078	1.4158	1.4116	1.4072	1.4029
x2 = 0.8522	1.4086	1.4043	1.3999	1.3957
x2 = 0.8993	1.401	1.3966	1.3922	1.3878
x2 = 0.9488	1.3929	1.3884	1.3839	1.3791

CC(=O)c1ccccc1 [acetophenone] + CCCCCCO
refractive index
Settings	293.15 K	303.15 K	313.15 K	323.15 K
x1 = 0.0498	1.4234	1.4196	1.4153	1.4113
x1 = 0.1009	1.4291	1.4253	1.421	1.417
x1 = 0.1517	1.4348	1.431	1.4267	1.4227
x1 = 0.2106	1.4415	1.4377	1.4334	1.4293
x1 = 0.2474	1.4457	1.4419	1.4376	1.4335
x1 = 0.3028	1.4521	1.4482	1.4439	1.4398
x1 = 0.3426	1.4567	1.4528	1.4484	1.4443
x1 = 0.3978	1.4631	1.4591	1.4547	1.4506
x1 = 0.4512	1.4693	1.4653	1.4608	1.4567
x1 = 0.4985	1.4748	1.4707	1.4662	1.4621
x1 = 0.5526	1.4811	1.4769	1.4724	1.4682
x1 = 0.6071	1.4874	1.4832	1.4786	1.4743
x1 = 0.6491	1.4923	1.488	1.4834	1.479
x1 = 0.7101	1.4994	1.495	1.4903	1.4858
x1 = 0.7485	1.5039	1.4994	1.4947	1.4901
x1 = 0.8019	1.5101	1.5056	1.5008	1.4962
x1 = 0.8521	1.516	1.5114	1.5066	1.5019
x1 = 0.9045	1.5222	1.5175	1.5126	1.5079
x1 = 0.9554	1.5283	1.5235	1.5185	1.5137

CCOC(=O)OCC [diethyl carbonate] + CCCCCCO
refractive index
Settings	293.15 K	303.15 K	313.15 K	323.15 K
x1 = 0.0502	1.4168	1.4131	1.4089	1.4049
x1 = 0.1123	1.4152	1.4115	1.4075	1.4036
x1 = 0.1499	1.4143	1.4106	1.4065	1.4026
x1 = 0.2103	1.4125	1.4088	1.4047	1.4007
x1 = 0.2508	1.4111	1.4074	1.4034	1.3994
x1 = 0.3121	1.4089	1.4051	1.4011	1.3971
x1 = 0.3576	1.4071	1.4033	1.3992	1.3953
x1 = 0.4113	1.4049	1.4011	1.3969	1.3931
x1 = 0.4632	1.4028	1.3989	1.3947	1.3909
x1 = 0.5111	1.4008	1.3969	1.3927	1.3887
x1 = 0.552	1.3991	1.3952	1.3909	1.3868
x1 = 0.6008	1.3972	1.3931	1.3888	1.3846
x1 = 0.6498	1.3953	1.3911	1.3867	1.3825
x1 = 0.7108	1.3929	1.3887	1.3842	1.3798
x1 = 0.7554	1.3912	1.387	1.3825	1.3779
x1 = 0.8112	1.3894	1.3851	1.3805	1.3758
x1 = 0.8501	1.3883	1.3838	1.3792	1.3745
x1 = 0.9002	1.3869	1.3823	1.3776	1.3729
x1 = 0.9555	1.3855	1.3809	1.3762	1.3714
